Data reported in patent US7385039B2, “Methods and compositions for regulating imidazoline receptors” (priority 1998, dated 2008).
Where “and” joins values, the source holds several entries; their conditions need not be identical. Equal entries are not always repeated. Entries after “also recorded” stand apart in the source; their conditions may differ. Where two headings read alike, the source gives them in different places.

Legend:
I3R [1] = test: I3R model: insulin release from rat islets of Langerhans; type: cell-based
Protocol: (§1) Islets of Langerhans from male Wistar rats were isolated by collagenase digestion in a medium of bicarbonate-buffered physiological saline solution containing 4 mM D-glucose and 1 mM CaCl2. Islets were selected under a binocular dissecting microscope and were used within two hours of isolation. Islets from humans were isolated from heart-beating cadaver organ donors by collagenase digestion and density gradient centrifugation (Chan, S. L. F., et al., 1997, Brit. J. Pharmacol. 120:926-932).
Incubations were done in 96-well plates. Isolated islets were incubated in 100 μl buffer solution supplemented with bovine serum albumin in humidified air: CO2 (95:5%) at 37° C. in the presence of test agents. To eliminate any potential alpha-2 responses, yohimbine (10 μM), a potent alpha2-adrenergic blocker, was included in all incubations. After 60 min incubation, samples of medium were removed for measurement of insulin release by radioimmunoassay using anti-bovine insulin antiserum. Presence of insulin in the test media were compared to controls; positive differences represented amounts of insulin released. In reversal experiments, diazoxide (e.g., 200 μM) was pre-incubated to block glucose-induced insulin release. In these studies, test reagents were used to determine if they were capable of overcoming diazoxide's inhibitory effects on K+ ATP channels, a well known action of imidazoline secretagogues in islet cells. For example, efaroxan (an inhibitor of I-1 responses in adrenal medullary cells) is a well known I-3 agonist, i.e., it stimulates (at 100 μM) release of insulin and overcomes diazoxide inhibition thus illustrating again the dictomy between I1 and I3 receptor subtypes.
I3R model: Insulin release from pancreas (Eglen, R. M., Hudson, A. L., Kendall, D. A., Nutt, D. J., Morgan, N. G., Wilson, V. G. & Dillon, M. P. (1998) TIPS 19, 381-390; Chan, S. L. F. (1998) Gen. Pharmacol. 31, 525-529; Morgan, N. G. (1999) Exp. Opin. Invest. Drugs 8, 575-584). Islets of Langerhans from male Wistar rats or human pancreata were isolated by collagenase digestion. Hand-picked islets were incubated in NaHCO3-buffered saline containing 1 mM CaCl2, 1 mg/ml BSA and test reagents. After incubation, insulin levels in supernatants were analyzed by RIA. The I3-blocker, KU-14R, served to verify I3R function.

I3R [2] = details: cited from earlier work
I1R = I1R model: [3H]arachidonic acid release from PC-12 cells; type: cell-based; details: for stimulation of [3H]AA release (in words): IAA-R 10 μM-1 mM
Protocol: Assays for measuring imidazoline receptor-mediated arachidonic acid release from PC12 cells is as described in Ernsberger et al., (1995, FASEB J. 9:A114).
I1R model: [^3H]Arachidonic acid (AA) release from PC-12 cells. Assays (Emsberger, P. (1998) J. Auton. Nerv. Syst. 72, 147-154 Ernsberger, P. (1998) J. Auton. Nerv. Syst. 72, 147-154) were done after a 30 min washout to attain a stable background. Cells were superfused with 0.01% BSA in Krebs buffer for seven 1-min fractions (baseline), then treated with 10 μM or 100 μM I-4-AA-RP alone, or together with efaroxan (10 μM), a prototypical I1-antagonist/I3-agonist. Controls included baseline release with vehicle alone (0-7 min) or vehicle containing efaroxan (5 min) before adding I-4-AA-RP. [^3H]products (>98% AA) collected in each 1-min fraction were expressed as fractional release defined as % total radioactivity incorporated into cells, corrected for [^3H]AA previously released (Ernsberger, P. (1998) J. Auton. Nerv. Syst. 72, 147-154).

SH rats = test: Mean arterial pressure and heart rate after microinjection into the RVLM of rats; type: in vivo, rat
Protocol: Effects of ribotide on mean arterial pressure (MAP) and heart rate (HR). Bilateral I-4-AA-RP microinjections (60 nl, 100 nmol) into the RVLM of SH rats were performed (Emsberger, P. & Haxhiu, M. A. (1997) Am. J. Physiol. 273, R1572-R1579) after the sympatho-excitatory area was confirmed by showing glutamate-induced MAP elevation ≧30 mm Hg. MAP and HR values were measured every 5 min. After each experiment, the injection site was marked by infusion of rhodamine microspheres. Changes were assessed relative to baseline values by two-way repeated measures ANOVA and Dunnett's test. A second group of SH rats (injection controls) received vehicle injections to control for injection effects and for volume artifacts due to multiple injections. Vehicle contained 2 nmol rilmenidine, a sub-threshold dose, far below that known to cause any detectable effect (Gomez, R. E., Emsberger, P., Feinland, G. & Reis, D. J. (1991) Eur. J. Pharmacol. 195, 181-191). In a follow-up study, SH rats (N=6) were given I-4-AA-RP then moxonidine. When used alone, it reduces MAP to normotensive levels (Emsberger, P., Elliott, H. L., Weimann, H.-J., Raap, A., Haxhiu, M. A., Hofferber, E., Low-Kroger, A., Reid, J. L. & Mest, H. J. (1993) Cardiovas. Drug Rev. 11, 411-431).

Imidazoline I Sites = test: [125I]p-iodoclonidine competition binding to bovine RVLM membranes, imidazoline sites
Excerpt: (§2) Whole bovine brains and adrenal glands were obtained from a local slaughterhouse. Brains were immediately placed on a chilled glass plate, washed with ice-cold Krebs'-Henseleit buffer, and dissected. The rostral medulla was isolated by transecting the brainstem rostrally at the posterior margin of the trapezoid body and caudally 1 cm caudal to the obex. The pia-arachnoid was removed, and the lateral medulla was isolated by a sagittal section through the lateral margin of the pyramids, and then bisected. The ventral half was defined as the ventrolateral medulla (VLM). Brain samples were transported on ice to the laboratory and processed immediately.
(§3) Fresh bovine VLM was homogenized by using a polytron (Tekmar Tissuemizer, setting 80 for 2×15 sec) in 20 volumes of ice-cold Hepes-buffered isotonic sucrose (pH brought to 7.4 with Tris base) containing the protease inhibitors (1,10)-phenanthroline (100 μM) and phenylmethylsulfonyl fluoride (50 μM) in order to inhibit degradation of receptor protein. Bovine adrenomedullary cells were homogenized in 15 ml Hepes-buffered isotonic sucrose by 10 strokes in a glass-glass hand-held homogenizer. All three homogenates were centrifuged at 1000×g for 5 min at 4° C. to remove nuclei and debris. The pellets (P1) were resuspended in 20 ml of homogenization buffer, and centrifuged again at 1000×g for 5 min. The combined supernatants were centrifuged at 48,000 g for 18 min at 4° C., and the resulting P2 pellet was resuspended in 10 to 25 volumes of 50 mM Tris-HCl buffer (pH 7.7) containing 5 mM EDTA. After recentrifugation at 48,000 g for 18 min, the resulting membrane pellet was resuspended in Tris-HCl containing 25 mM NaCl, preincubated for 30 min at 25° C., chilled on ice, centrifuged again, resuspended a final time in Tris-HCl alone, centrifuged, flash-frozen, and stored at −70° C. for up to three months.
(§4) Radioligand binding assays with [^3H]clonidine or [^125I]p-iodoclonidine for determination of specific membrane binding to VLM and renal medulla imidazoline sites and α2-adrenergic receptors were performed by a modification of methods previously described (Ernsberger P. et al., 1997, J. Hypertension 1997, 15:S9-S23). Membranes were slowly thawed and resuspended in Tris-Hepes buffer (5.0 mM; pH 7.7 at 25° C., containing 0.5 mM EDTA, 0.5 mM EGTA, and 0.5 mM MgCl2) at a concentration of 1 mg protein/ml for the VLM, 4 mg protein/ml for the renal medulla, and 0.2 mg protein/ml for adrenomedullary cells. Assays were conducted in a total volume of 250 μl in polypropylene 96-well plates (Beckman Macrowell), and each well contained 125 μl membrane suspension, 25 μl radioligand, and 100 μl drug or vehicle. Incubations were initiated by the addition of membrane and were carried out for 30 min at 22° C. Nonspecific binding was defined in the presence of 10 μM BDF-6143, an imidazoline adrenergic agent. Specific α2-adrenergic binding was defined by inhibition with (−)epinephrine (0.1 mM). In experiments using catecholamines, all samples contained ascorbic acid in a final concentration of 0.001%. Incubations were terminated by vacuum filtration using a cell harvester (Brandel) equipped with Teflon tubing to reduce absorption of the radioligand over glass fiber filters (Schleicher & Schuell #34) which were preincubated for 4 h at 4° C. in 0.03% polyethylimine to reduce nonspecific binding to the filter. The filters were washed four times with 5 ml ice-cold Tris-HCl, placed in scintillation vials, covered with 4 ml scintillation cocktail (BioSafe II, Research Products International), and counted at 50% efficiency (Beckman LS5801). Protein was assayed by the bicinchoninic acid method.
(§5) Data were obtained as dpm and transferred to the Equilibrium Binding Data Analysis (EBDA) program for initial processing; 4 to 10 experiments were analyzed simultaneously by using the LIGAND program for nonlinear curve-fitting. Protein assay data were also analyzed by nonlinear curve-fitting.
(§6) Competition binding assays. […]

α2-Adrenergic Sites = test: [125I]p-iodoclonidine competition binding to bovine RVLM membranes, α2-adrenergic sites; details: for Ki: read-out: Ki, α2-Adrenergic Sites (low affinity sites)
Excerpt: as §2, §3, §4, §5, §6

β-TC3 cells = test: Insulin release from insulinoma cells in culture; type: cell-based
I3R [3] = test: I3R model: insulin release from human islets; type: cell-based
Protocol: as §1
Incubations were done in 96-well plates. Isolated islets were incubated in 100 μl buffer solution supplemented with bovine serum albumin in humidified air: CO2 (95:5%) at 37° C. in the presence of test agents. To eliminate any potential alpha-2 responses, yohimbine (10 μM), a potent alpha2-adrenergic blocker, was included in all incubations. After 60 min incubation, samples of medium were removed for measurement of insulin release by radioimmunoassay using anti-bovine insulin antiserum. […]
I3R model: Insulin release from pancreas (Eglen, R. M., Hudson, A. L., Kendall, D. A., Nutt, D. J., Morgan, N. G., Wilson, V. G. & Dillon, M. P. (1998) TIPS 19, 381-390; Chan, S. L. F. (1998) Gen. Pharmacol. 31, 525-529; Morgan, N. G. (1999) Exp. Opin. Invest. Drugs 8, 575-584). […] After incubation, insulin levels in supernatants were analyzed by RIA. […]

[4] = With cimetidine (I-sites masked)

O=C(O)Cc1cncn1[C@@H]1O[C@H](CO)[C@@H](O)[C@H]1O [pros-IAA-R, 1-(β-D-ribofuranosyl)-imidazole-5-acetic acid]
reversal of the inhibitory action of diazoxide on glucose-induced insulin release (I3R [1]): able to reverse the inhibitory action of diazoxide | stimulation of insulin release (in words) (I3R [1]; rat islets): effects similar to or even greater than that seen with tele IAA-RP

CCC1(C2=NCCN2)Cc2ccccc2O1 (stereo not shown) [efaroxan, reference compound]
concentration of maximal stimulation of insulin release (I3R [2]): ~100 µM | blockade of IAA-RP-induced [3H]AA release (I1R; efaroxan 10 μM, before and throughout IAA-RP superfusion): abolished responses to IAA-RP; also recorded: blocked IAA-RP-induced release

O=C(O)Cc1cn([C@@H]2O[C@H](CO)[C@@H](O)[C@H]2O)cn1 [IAA-R, 1-(β-D-ribofuranosyl)-imidazole-4-acetic acid]
change of heart rate (HR) (SH rats; SH rats, 100 nmol into RVLM): did not alter MAP or HR significantly | effect on MAP (in words) (SH rats; SH rats, 100 nmol into RVLM): did not alter MAP or HR significantly | Ki (Imidazoline I Sites; bovine RVLM membranes, [125I]PIC, read-out: K1 in RVLM, parallel assays): 266 ± 48 µM | reversal of the inhibitory action of diazoxide on glucose-induced insulin release (I3R [1]): able to reverse the inhibitory action of diazoxide | activity relative to IAA-RP's maximal activity on insulin release (I3R [1]; paired experiment, pancreatic beta cells): < 50% | stimulation of insulin release (in words) (I3R [1]; rat islets): potent stimulants of insulin release | stimulation of [3H]AA release (in words) (I1R): no significant response

CCC1(c2ncc[nH]2)Cc2ccccc2O1 (stereo not shown) [KU-14R, reference compound]
blockade of IAA-RP-induced insulin secretion (I3R [1]; KU-14R 100 μM, IAA-RP 1 μM, diazoxide 200 μM): abolished IAA-RP-induced secretion

COc1nc(C)nc(Cl)c1N=C1NCCN1 [MOX, moxonidine, reference compound]
lowering of MAP (SH rats; SH rats with IAA-RP-elevated MAP, 4 nmol, within 30 min): 37.3±6.3% | reversal of IAA-RP's hypertensive effect (SH rats; SH rats, 4 nmol microinjected): completely reversed IAA-RP's effect

O=C(O)Cc1cn(C2OC(COP(=O)(O)O)C(O)C2O)cn1 [IAA-RP, 1-(β-D-ribofuranosyl)-imidazole-4-acetic acid 5′ phosphate]
Percent Sites, α2-Adrenergic Sites (α2-Adrenergic Sites; Control (no masking ligand)): 29 ± 5% | Ki (α2-Adrenergic Sites; Control (no masking ligand)): 57 ± 33 µM | Percent Sites, α2-Adrenergic Sites (α2-Adrenergic Sites; [4]): 100 ± 10% | Ki (α2-Adrenergic Sites; [4]): 210 ± 32 µM | Percent Sites, α2-Adrenergic Sites (α2-Adrenergic Sites; With epinephrine (α2Rs masked)): 14 ± 4% | Ki (α2-Adrenergic Sites; With epinephrine (α2Rs masked)): 60 ± 48 µM | fold lower affinity of remaining (low affinity) sites versus high affinity component (α2-Adrenergic Sites; no masking ligands): > 300 fold | rise of MAP over baseline (SH rats; SH rats, 100 nmol bilateral microinjection into RVLM): ~25 mm Hg | change of heart rate (HR) (SH rats; SH rats, 100 nmol into RVLM): no significant changes | MAP elevation above baseline (SH rats; SH rats, after six 100 nmol doses): 20.4±5.6% | stimulation of insulin release (β-TC3 cells): capable of stimulating insulin release | EC50 (I3R [3]): ~0.003 µM | affinity of high-affinity RVLM sites relative to low-affinity RVLM sites and adrenal I1R sites (Imidazoline I Sites): > 100 fold | fold greater affinity than IAA-R in displacing [125I]p-iodoclonidine (Imidazoline I Sites): > 100 fold | Percent Sites, Imidazoline I Sites (high affinity component) (Imidazoline I Sites; Control (no masking ligand)): 71% and 71±5% | Ki (Imidazoline I Sites; Control (no masking ligand), read-out: Ki, Imidazoline I Sites): 0.16 ± 0.038 µM | selectivity for I-Rs over α2-sites (Imidazoline I Sites; RVLM): > 1000 fold | Percent Sites, Imidazoline I Sites (high affinity component) (Imidazoline I Sites; With epinephrine (α2Rs masked)): 86% and 86±4% | Ki (Imidazoline I Sites; With epinephrine (α2Rs masked), read-out: Ki, Imidazoline I Sites): 0.1 ± 0.019 µM | reversal of the inhibitory action of diazoxide on glucose-induced insulin release (I3R [1]): overcame inhibitory effects of the KATP-channel agonist, diazoxide | reversal of the inhibitory action of diazoxide on glucose-induced insulin release (I3R [1]; listed as tele-linked IAA-RP): able to reverse the inhibitory action of diazoxide | stimulation of insulin release (in words) (I3R [1]; rat islets): potent stimulants of insulin release; also recorded: increased insulin secretion from islets; also recorded: far more potent than efaroxan | EC50 (I3R [1]; rat islets, glucose 20 mM and diazoxide 200 μM): 0.03 to 0.05 µM | increase of [3H]AA release (I1R; 10 μM): 68±29% | increase of [3H]AA release (I1R; 100 μM): 177±89% | stimulation of [3H]AA release (in words) (I1R): stimulated release of arachidonic acid
